In assay [1] the target is T1, α1C Human Adrenergic Receptor (Homo sapiens, UniProt P35348).
T1 construct: The entire coding region of α1C (1401 bp); expressed in transfected cells
T1 sequence (P35348 1-466): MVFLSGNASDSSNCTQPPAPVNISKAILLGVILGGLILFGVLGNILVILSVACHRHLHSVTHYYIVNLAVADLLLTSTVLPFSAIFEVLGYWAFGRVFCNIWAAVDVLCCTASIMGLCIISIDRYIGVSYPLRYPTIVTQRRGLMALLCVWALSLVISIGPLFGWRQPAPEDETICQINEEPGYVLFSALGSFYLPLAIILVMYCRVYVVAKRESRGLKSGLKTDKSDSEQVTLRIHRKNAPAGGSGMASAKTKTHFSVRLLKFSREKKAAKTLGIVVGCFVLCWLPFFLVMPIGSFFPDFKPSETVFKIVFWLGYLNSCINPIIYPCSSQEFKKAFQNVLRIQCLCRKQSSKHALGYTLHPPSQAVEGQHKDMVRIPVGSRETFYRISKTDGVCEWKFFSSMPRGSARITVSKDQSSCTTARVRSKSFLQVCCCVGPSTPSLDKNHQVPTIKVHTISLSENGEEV
Put plainly: Radioligand binding, [3H]prazosin, cloned human α1C adrenergic receptor. The procedure, abridged: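 Antagonist radioligand [3H]prazosin at 0.5 nM labels human α1C receptors in stably transfected LM(tk−) cell membranes over 20 min at 37° C. Phentolamine (10 μM) gives nonspecific binding.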

A further assay concerns the target T2, α2B receptor (Homo sapiens, UniProt P18089).
T2 construct: host or cells: LM(tk-) cells, line L-NGC-α2B
T2 sequence (P18089 1-450): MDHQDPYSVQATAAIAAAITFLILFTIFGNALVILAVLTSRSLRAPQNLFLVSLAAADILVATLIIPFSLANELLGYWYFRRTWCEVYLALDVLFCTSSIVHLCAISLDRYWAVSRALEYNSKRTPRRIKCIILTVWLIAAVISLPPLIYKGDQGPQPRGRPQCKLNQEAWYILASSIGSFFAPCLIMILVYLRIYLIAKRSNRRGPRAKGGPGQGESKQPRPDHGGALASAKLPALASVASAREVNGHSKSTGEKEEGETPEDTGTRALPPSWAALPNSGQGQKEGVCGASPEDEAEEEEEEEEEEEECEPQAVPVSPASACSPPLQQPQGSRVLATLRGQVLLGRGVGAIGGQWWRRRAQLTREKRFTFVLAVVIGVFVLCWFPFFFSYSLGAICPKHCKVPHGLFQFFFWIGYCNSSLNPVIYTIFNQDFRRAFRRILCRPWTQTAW
Put plainly: Competition binding, [3H]rauwolscine, human α2B receptor. In outline:
(§1)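 Using 25 mM glycylglycine buffer at pH 7.6 (room temperature), membranes from LM(tk−) cells carrying α2A, α2B or α2C were competed against 0.5 nM [3H]rauwolscine to equilibrium. Separation was by GF/B filtration; phentolamine (10 μM) set nonspecific binding.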

Another assay has as its target T3, α2A receptor (Homo sapiens, UniProt P08913).
T3 construct: host or cells: LM(tk-) cells, line L-α2A
T3 sequence (P08913 1-465): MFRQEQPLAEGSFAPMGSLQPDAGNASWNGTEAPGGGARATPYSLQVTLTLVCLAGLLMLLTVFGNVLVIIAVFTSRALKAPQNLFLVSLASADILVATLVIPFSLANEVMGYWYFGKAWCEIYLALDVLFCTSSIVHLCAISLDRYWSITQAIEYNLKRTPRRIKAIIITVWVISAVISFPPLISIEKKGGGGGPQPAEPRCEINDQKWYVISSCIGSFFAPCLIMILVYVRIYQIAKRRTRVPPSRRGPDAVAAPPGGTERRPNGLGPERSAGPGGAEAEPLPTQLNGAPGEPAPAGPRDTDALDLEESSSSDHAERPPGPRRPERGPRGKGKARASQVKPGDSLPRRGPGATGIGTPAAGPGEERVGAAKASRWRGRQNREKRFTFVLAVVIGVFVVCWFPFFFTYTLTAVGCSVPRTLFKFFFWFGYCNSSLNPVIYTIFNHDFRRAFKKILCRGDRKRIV
Put plainly: Competition binding, [3H]rauwolscine, human α2A receptor. The procedure, abridged: as §1

Setting [2] is: cloned human receptor in LM(tk-) cell membranes, SEM and n in lines below, read-out: pKi alpha-1 1c (converted).
Where [3] appears, read: cloned human α1C receptor, LM(tk−) cell membranes, read-out: pKi alpha-1 1c (converted).
Setting [4] is: [3H]rauwolscine, human α2B receptor, LM(tk−) cells, read-out: pKi alpha-2 2b (converted).
Setting [5] is: [3H]rauwolscine, human α2A receptor, LM(tk−) cells, read-out: pKi alpha-2 2a (converted).
The mark [6] stands for this setting: pKi alpha-1 1c, cloned human α1C receptor, LM(tk−) cell membranes.
Setting [7] is: pKi alpha-2 2b, [3H]rauwolscine, human α2B receptor, LM(tk−) cells.
[8] abbreviates: pKi alpha-1 1c, cloned human receptor in LM(tk-) cell membranes, SEM and n in lines below.
The mark [9] stands for this setting: pKi alpha-2 2b, [3H]rauwolscine, LM(tk-) cell line L-NGC-α2B, SEM and n in lines below.
Setting [10] is: [3H]rauwolscine, LM(tk-) cell line L-α2A, SEM and n in lines below, read-out: pKi alpha-2 2a (converted).

Structures can show the parent of a compound that is named as a salt. Where two headings read alike, the source gives them in different places.

In the case of `COC(=O)C1=C(C)NC(C)=C(C(=O)NCCCN2CCC(c3ccccc3)(c3ccccc3)CC2)C1c1ccc2c(c1)OCO2` (stereo not drawn) [Example 11, 1,4-Dihydro-3-methoxycarbonyl-2,6-dimethyl-4-(3,4-methylenedioxyphenyl)-5-(N-(3-(4,4-diphenylpiperidin-1-yl)propyl)carboxamido)pyridine], the Ki in assay [1] (setting [2]) was 1.12 nM; at α2B receptor (pKi alpha-2 2b) it was 871 nM; on α2A receptor, 1120 nM.

Consider `CCC1=C(C(N)=O)C(c2ccc([N+](=O)[O-])cc2)C(C(=O)NCCCN2CCN(c3ccccc3OC)CC2)=C(CC)N1` (stereo not drawn) [Example 125, 5-Carboxamido-2,6-diethyl-1,4-dihydro-3-(N-{3-[4-(2-methoxyphenyl)piperazin-1-yl]propyl})carboxamido-4-(4-nitrophenyl)pyridine], for which the Ki in assay [1] (setting [3]) was 1.15 nM; at α2B receptor (setting [4]), 186 nM; on α2A receptor (setting [5]), 26.9 nM.

Consider `CCC1=C(C(N)=O)C(c2ccc([N+](=O)[O-])cc2)C(C(=O)NCCCN2CCC(C)(c3ccccc3)CC2)=C(CC)N1` (stereo not drawn) [Example 106, 5-Carboxamido-2,6-diethyl-1,4-dihydro-3-{N-[3-(4-Methyl-4-phenylpiperidin-1-yl)propyl]}carboxamido-4-(4-nitrophenyl)pyridine hydrochloride hydrate], for which the values for the Ki (in assay [1] (setting [6]); on α2B receptor (setting [7]); at α2A receptor (setting [5])) were 15.1 nM, 372 nM and 324 nM, respectively.

On to `CC1=C(C(=O)NCCCN2CCC(c3ccccc3)(c3ccccc3)CC2)C(c2ccc([N+](=O)[O-])cc2)C(C(=O)OCCC#N)=C(C)N1` (stereo not drawn) [Example 160], for which the Ki in assay [1] (setting [3]) was 7.94 nM; at α2B receptor (setting [4]), 148 nM; at α2A receptor (setting [5]) it was 457 nM.

Turning to `CCC1=C(C(=O)OCCC#N)C(c2ccc([N+](=O)[O-])cc2)C(C(=O)NCCCN2CCC(c3ccccc3)(c3ccccc3)CC2)=C(COC)N1` (stereo not drawn) [Example 135], the Ki in assay [1] (setting [3]) is 105 nM; on α2B receptor (setting [4]), 389 nM; on α2A receptor (setting [5]), 661 nM.

Regarding `COC(=O)C1=C(C)NC(C)=C(C(=O)NCCCN2CCC(c3ccccc3)(c3ccccc3)CC2)C1c1ccc(F)cc1` (stereo not drawn) [Example 20, 4-(4-Fluorophenyl)-1,4-dihydro-3-methoxycarbonyl-2,6-dimethyl-5-(N-(3-(4,4-diphenylpiperidin-1-yl)propyl)carboxamido)pyridine], the Ki in assay [1] (setting [2]) was 3.8 nM; at α2B receptor (pKi alpha-2 2b) it was 1320 nM; on α2A receptor, 1780 nM.

Turning to `CCC1=C(C(=O)NCCCN2CCC(c3ccccc3)(c3ccccc3)CC2)C(c2ccc([N+](=O)[O-])cc2)C(C(N)=O)=C(C)N1` (stereo not drawn) [Example 81, 5-carboxamido-2-ethyl-1,4-dihydro-6-methyl-4-(4-nitro)phenyl-3-(N-(3-(4,4-diphenylpiperidin-1-yl)propyl))carboxamidopyridine hydrochloride], the Ki in assay [1] (setting [8]) was 1.91 nM; on α2B receptor (setting [9]), 162 nM; at α2A receptor (setting [10]), 178 nM.

With `CCC1=C(C(=O)NCCCN2CCC(c3ccccc3)(c3ccccc3)CC2)C(c2ccc([N+](=O)[O-])cc2)C(C(=O)OCc2ccccc2)=C(C)N1` (stereo not drawn) [Example 4, 5-Benzyloxycarbonyl-2-ethyl-1,4-dihydro-6-methyl-4-(4-nitrophenyl)-3-(N-(3-(4,4-diphenylpiperidin-1-yl)propyl)carboxamido) pyridine, Hydrochloride Salt, Hydrate], the Ki in assay [1] (setting [8]) was 67.6 nM; on α2B receptor (setting [9]), 1020 nM; on α2A receptor (setting [10]), 550 nM.

For the compound `COC(=O)C1=C(C)NC(C)=C(C(=O)NCCCN2CCC(c3ccccc3)(c3ccccc3)CC2)C1c1ccc(OC)c(OC)c1` (stereo not drawn) [Example 26], the values for the Ki (in assay [1] (setting [2]); on α2B receptor (pKi alpha-2 2b); at α2A receptor) were 7.08 nM, 977 nM and 2140 nM, respectively.

Regarding `COC(=O)C1=C(C)NC(C)=C(C(=O)NCCCN2CCC(c3ccccc3)(c3ccccc3)CC2)C1c1ccc(Cl)c([N+](=O)[O-])c1` (stereo not drawn) [Example 16, 4-(4-Chloro-3-nitrophenyl)-1,4-dihydro-3-methoxycarbonyl-2,6-dimethyl-5-(N-(3-(4,4-diphenylpiperidin-1-yl)propyl)carboxamido)pyridine], the Ki is 5.89 nM in assay [1] (setting [2]), 1820 nM at α2B receptor (pKi alpha-2 2b) and 1120 nM on α2A receptor.

In the case of `CCC1=C(C(=O)NC)C(c2ccc([N+](=O)[O-])cc2)C(C(=O)NCCCN2CCC(c3ccccc3)(c3ccccc3)CC2)=C(CC)N1` (stereo not drawn) [Example 128, 2,6-Diethyl-1,4-dihydro-5-(N-methyl)carboxamido-4-(4-nitrophenyl)-3-{N-[3-(4,4-diphenylpiperidin-1-yl)propyl]}carboxamidopyridine], the Ki was 3.39 nM in assay [1] (setting [6]), 437 nM at α2B receptor (setting [7]) and 457 nM on α2A receptor (setting [5]).

Take `COC(=O)C1=C(C)NC(C)=C(C(=O)NCCCN2CCC(c3ccccc3)(c3ccccc3)CC2)C1c1ccc(I)cc1` (stereo not drawn) [Example 13, 1,4-Dihydro-4-(4-iodophenyl)-3-methoxycarbonyl-2,6-dimethyl-5-(N-(3-(4,4-diphenylpiperidin-1-yl)propyl)carboxamido)pyridine]: the Ki was 7.24 nM in assay [1] (setting [2]), 1740 nM on α2B receptor (pKi alpha-2 2b) and 1260 nM at α2A receptor.

As to `COC(=O)C1=C(C)NC(C)=C(C(=O)NCCCN2CCC(c3ccccc3)(c3ccccc3)CC2)C1c1ccc([N+](=O)[O-])c(OC)c1` (stereo not drawn) [Example 29, 1,4-Dihydro-3-methoxycarbonyl-4-(3-methoxy-4-nitrophenyl)-2,6-dimethyl-5-(N-(3-(4,4-diphenylpiperidin-1-yl)propyl)carboxamido)pyridine], the Ki is 1.48 nM in assay [1] (setting [2]); 631 nM at α2B receptor ([3H]rauwolscine, LM(tk-) cell line L-NGC-α2B, SEM and n in lines below, read-out: pKi alpha-2 2b (converted)); 692 nM at α2A receptor (setting [10]).

Take `CCC1=C(C(=O)NCCCN2CCC(c3ccccc3)(c3ccccc3)CC2)C(c2ccc([N+](=O)[O-])cc2)C(C(=O)OC(C)(C)C)=C(COCCN=[N+]=[N-])N1` (stereo not drawn) [Example 139]: the Ki in assay [1] (setting [6]) was 23.4 nM; on α2B receptor (setting [7]) it was 1260 nM; on α2A receptor (setting [5]) it was 832 nM.

In the case of `COC(=O)C1=C(C)NC(c2ccoc2)=C(C(=O)NCCCN2CCC(c3ccccc3)(c3ccccc3)CC2)C1c1ccc([N+](=O)[O-])cc1` (stereo not drawn) [Example 43, 2-(Furan-3-yl)-, 4-dihydro-5-methoxycarbonyl-6-methyl-4-(4-nitrophenyl)-3-(N-(3-(4,4-diphenylpiperidin-1-yl)propyl)carboxamidopyridine, hydrochloride salt], the Ki was 2.4 nM in assay [1] (setting [8]), 437 nM at α2B receptor (setting [9]) and 661 nM at α2A receptor (setting [10]).

For the compound `CC1=C(C(=O)NCCCN2CCC(c3ccccc3)(c3ccccc3)CC2)C(c2ccc([N+](=O)[O-])cc2)C(C(=O)NC(C)C)=C(C)N1` (stereo not drawn) [Example 156, 1,4-Dihydro-3-(N-isopropyl) carboxamido-2,6-dimethyl-4-(4-nitrophenyl)-5-{N-[3-(^414-diphenylpiperidin-1-yl)propyl]}carboxamidopyridine], the Ki in assay [1] (setting [6]) is 95.5 nM; at α2B receptor (setting [7]) it was 562 nM; at α2A receptor (setting [5]), 316 nM.

Values taken from US6608086B2, “Dihydropyridines and new uses thereof” (Synaptic Pharmaceutical Corporation, priority 1993, dated 2003).
